From patent US10220112B2, “Cyclic antimicrobial pseudopeptides and uses thereof” (INSERM (INSTITUT NATIONAL DE LA SANTE ET DE LA RECHERCHE …, priority 2014, dated 2019)
Read-outs that look alike come from different tables or passages of the source. Starred links: 1 amine or outer side, 2 acyl side, 3 side chain; linkers in the order of their positions; H or OH if unused. Non-standard residues stand in square brackets, D forms with d. Residues, ends and D or L forms follow the SMILES beside them. azaβ3(1Nal) = O=C(CN(Cc1cccc2ccccc12)N[*:1])[*:2]; X2 = O=C(CN(Cc1ccc2ccccc2c1)N[*:1])[*:2]; X1 = O=C(CN(CC(O)CO)N[*:1])[*:2]

Assays:
[1] = tested on: Escherichia coli strain K12 XL-Blue; details: for E. coli MIC: strain K12 XL-Blue; for Minimum Bactericidal Concentration (MBC), E. coli: no colonies on BHI agar after 24 h 37°C
Protocol: (§1) The antibacterial activity of the synthesized peptides was measured using a standard microdilution assay. Two bacterial species were tested, Staphylococcus aureus strain Newman and Escherichia coli strain K12 XL-Blue. Bacterial strains were subcultured in Mueller-Hinton broth. […] Bacteria were grown to an optical density (600 nm) of 0.5 and diluted 10^3 times in MH broth. Cell density in wells was 10^5 cfu/mL. 100 μL of this suspension was mixed with 100 μL of 2-fold serial dilutions of peptides in the well of a microtitre plate. Purified peptides were first dissolved in appropriate solvent to a final concentration of 2 mg/mL, in the microtitre plate, dilutions were made in MH broth from 1 to 0.004 mg/mL. […] Results obtained in massic concentrations were converted to molar concentrations for proper comparisons. Tests were performed in triplicate.
(§2) The results presented in Table 2 below were obtained in triplicate as described in the case of Table 1 except that the starting concentration was […] instead of 1 mg/mL.

[2] = tested on: Staphylococcus aureus strain Newman; details: for S. aureus MIC: strain Newman; for Minimum Bactericidal Concentration (MBC), S. aureus: no colonies on BHI agar after 24 h 37°C
Protocol: as §1, §2

[3] = tested on: MRSA strain S. aureus N315; details: Table 2
human erythrocytes = assay: Lytic activity against human erythrocytes; format: cell-based; details: for Human cells % hemolysis at 500 μM / Human cells H50: Table 2; for Human cells H50: maximal concentration 500 μM; for Human cells H50 (peptide concentration at which half of the human erythrocytes are lysed): Table 1, 2 h 37°C, maximal concentration 1 mg/mL; for hemolysis at 0.2 mg/mL: 0.2 mg/mL (50 μM PepA1, 160 μM Pep11), value expected when choosing SEM concentration; for hemolysis at the MIC: human erythrocytes, at the peptide's MIC
Protocol: Human blood was collected from EFS (‘Etablissement Francais du Sang’) in Rennes (France). […] After centrifugation, the absorbance of the supernatant was measured at 414 nm. Three wells were positive controls, where the RBC were mixed with water 1% Triton X-100, in these wells the totality of RBC were hemolyzed and the release of hemoglobin was considered to be 100%. Three wells were negative controls, where the RBC were mixed with PBS buffer, in these wells hemolysis was considered to be null. The percentage of hemolysis in each test well was calculated by comparing with controls. For each peptide, bloods from three different donors were tested.

[4] = tested on: VISA strain S. aureus Mu 50; details: Table 2
[5] = Peptides stability in human sera (RP-HPLC)
Protocol: Peptides stability in human sera. […] The initial time was recorded, and at known time intervals, 100 μL of reaction solution was removed and quenched by adding 200 μL of 95% EtOH and adjusted at pH=2 to eliminate the effect of peptides adsorption to the protein of the human serum. The cloudy reaction sample was cooled (4° C.) for 15 minutes and then spun at 14 000 rpm (Eppendorf centrifuge) for 4 minutes to pellet the precipitated serum proteins.
The different peptides were incubated with human serum up to 10 hours, and their stability was analyzed and their half-lives determined by RP-HPLC (FIG. 1).

[6] = Table 2, starting concentration 500 μM
[7] = Table 1, 20 h 37°C, maximal concentration 1 mg/mL

CC(C)[C@@H]1NC(=O)[C@H](CCCNC(=N)N)NC(=O)[C@H](CCCNC(=N)N)NC(=O)CN(Cc2cccc3ccccc23)NC(=O)[C@H](Cc2ccccc2)NC(=O)CN(Cc2cccc3ccccc23)NC(=O)[C@H](CCCCN)NC1=O [Pep19, (Ψ1Nal-F-Ψ1Nal-RRVK)] (cyclo([azaβ3(1Nal)]F[azaβ3(1Nal)]RRVK))
E. coli MIC [1, 6]: 4 µM
S. aureus MIC [2, 6]: 4 µM
MRSA MIC [3]: 4 µM
Human cells % hemolysis at 500 μM (human erythrocytes): 7%
Human cells H50 (human erythrocytes): nd (not detectable at the maximal concentration tested (500 μM))
VISA MIC [4]: 4 µM

CC(C)C[C@@H]1NC(=O)[C@H](Cc2c[nH]c3ccccc23)NC(=O)[C@H](Cc2ccccc2)NC(=O)[C@H](Cc2ccccc2)NC(=O)[C@H](CCCCN)NC(=O)CN(CC(O)CO)NC(=O)[C@H](CCCNC(=N)N)NC(=O)[C@H](CCCNC(=N)N)NC1=O (stereo partly shown) [Pep10, (FFWLRRΨHytK)] (cyclo(FFWLRR[X1]K))
MIC, fold lower compared to Pep9, E. coli [1]: seven-fold
E. coli MIC [1, 7]: 13 µM
MIC, fold lower compared to Pep9, S. aureus [2]: four
S. aureus MIC [2, 7]: 25 µM
lysis of human erythrocytes (in words) (human erythrocytes): slightly hemolytic
Human cells H50 (peptide concentration at which half of the human erythrocytes are lysed) (human erythrocytes): 150 µM

CC(C)C[C@@H]1NC(=O)[C@H](Cc2c[nH]c3ccccc23)NC(=O)[C@H](Cc2ccccc2)NC(=O)[C@H](Cc2ccccc2)NC(=O)[C@H](CCCCN)NC(=O)[C@H]([C@@H](C)O)NC(=O)[C@H](CCCNC(=N)N)NC(=O)[C@H](CCCNC(=N)N)NC(=O)[C@H](CO)NC1=O [Pep6] (cyclo(FFWLSRRTK))
stabilizing effect in human serum compared with linear Pep4 [5]: ~320 fold
MIC, fold reduced compared to Pep5, E. coli [1]: ten-fold
MIC, fold reduced compared to Pep5, S. aureus [2]: ten-fold
fold higher activity than linear Pep4 ([2]; species not specified): 4 fold
lysis of human erythrocytes (in words) (human erythrocytes): substantial hemolysis
Human cells H50 (peptide concentration at which half of the human erythrocytes are lysed) (human erythrocytes): 5 µM

N=C(N)NCCC[C@@H]1NC(=O)CN(Cc2ccc3ccccc3c2)NC(=O)[C@H](Cc2ccccc2)NC(=O)[C@H](Cc2ccccc2)NC(=O)[C@H](CCCCN)NC(=O)CN(CC(O)CO)NC(=O)[C@H](CCCNC(=N)N)NC1=O (stereo partly shown) [Pep15, (FFΨ2-Nal-RR-ΨHyt-K)] (cyclo(FF[X2]RR[X1]K))
E. coli MIC [1, 6]: 2 µM
S. aureus MIC [2, 6]: 2 µM
MRSA MIC [3]: 2 µM
Human cells % hemolysis at 500 μM (human erythrocytes): 3%
Human cells H50 (human erythrocytes): nd (not detectable at the maximal concentration tested (500 μM))
VISA MIC [4]: 2 µM

CC(C)[C@@H]1NC(=O)[C@H](CCCNC(=N)N)NC(=O)[C@H](CCCNC(=N)N)NC(=O)[C@H](Cc2c[nH]c3ccccc23)NC(=O)[C@H](Cc2ccccc2)NC(=O)[C@H](Cc2ccccc2)NC(=O)[C@H](CCCCN)NC1=O [Pep18, (FFWRRVK)] (cyclo(FFWRRVK))
E. coli MIC [1, 6]: 4 µM
S. aureus MIC [2, 6]: 4 µM
MRSA MIC [3]: 8 µM
VISA MIC [4]: 8 µM

H-FFWLSRTK-NH2 [Pep5]
MIC, fold higher than Pep4, E. coli [1]: two-fold
MIC, fold higher than Pep4, S. aureus [2]: two-fold
Human cells H50 (peptide concentration at which half of the human erythrocytes are lysed) (human erythrocytes): nd (not detectable at the maximal concentration tested (1 mg/mL, 300 to 900 μM))

CC(C)N1CC(=O)N[C@@H](CCCCN)C(=O)NN(Cc2ccc3ccccc3c2)CC(=O)N[C@@H](Cc2ccccc2)C(=O)NN(Cc2ccc3ccccc3c2)CC(=O)N[C@@H](CCCNC(=N)N)C(=O)N[C@@H](CCCNC(=N)N)C(=O)N1 [Pep16, (Ψ2Nal-F-Ψ2Nal-RR-ΨV-K)]
Human cells H50 (human erythrocytes): nd (not detectable at the maximal concentration tested (500 μM))

H-FFWLSRRTK-NH2 [Pep4]
E. coli MIC [1, 7]: 100 µM
S. aureus MIC [2, 7]: 200 µM
Human cells H50 (peptide concentration at which half of the human erythrocytes are lysed) (human erythrocytes): nd (not detectable at the maximal concentration tested (1 mg/mL, 300 to 900 μM))

H-MLIFVHIIAPVISGCAIAFFSYWLSRRNTK-NH2 [PepA1, reference compound]
E. coli MIC [1, 7]: 8 µM
Minimum Bactericidal Concentration (MBC), E. coli [1]: 16 µM
S. aureus MIC [2, 7]: 8 µM
Minimum Bactericidal Concentration (MBC), S. aureus [2]: 16 µM
hemolysis at 0.2 mg/mL (human erythrocytes): 50%
Human cells H50 (peptide concentration at which half of the human erythrocytes are lysed) (human erythrocytes): 70 µM
hemolysis at the MIC (human erythrocytes): 20%

C[C@@H](O)[C@@H]1NC(=O)[C@H](CCCNC(=N)N)NC(=O)[C@H](CCCNC(=N)N)NC(=O)[C@H](Cc2c[nH]c3ccccc23)NC(=O)[C@H](Cc2ccccc2)NC(=O)[C@H](Cc2ccccc2)NC(=O)[C@H](CCCCN)NC1=O [Pep8, (FFWRRTK)] (cyclo(FFWRRTK))
fold more antibacterial than Pep7 ([2]; species not specified): ~3 fold
fold less hemolytic than Pep7 (human erythrocytes): 10 fold
Human cells H50 (peptide concentration at which half of the human erythrocytes are lysed) (human erythrocytes): 160 µM

N=C(N)NCCC[C@@H]1NC(=O)[C@H](Cc2c[nH]c3ccccc23)NC(=O)[C@H](Cc2ccccc2)NC(=O)[C@H](Cc2ccccc2)NC(=O)[C@H](CCCCN)NC(=O)CN(CC(O)CO)NC(=O)[C@H](CCCNC(=N)N)NC1=O (stereo partly shown) [Pep11, (FFWRRΨHytK)] (cyclo(FFWRR[X1]K))
higher stability in human serum than the PepA1 parental peptide [5]: ~240 fold
E. coli MIC [1, 7]: 3 µM
Minimum Bactericidal Concentration (MBC), E. coli [1]: 8 µM
S. aureus MIC [2, 7]: 7 µM
fold higher antibacterial activity compared to Pep10 ([2]; against the two model bacteria): four-fold
Minimum Bactericidal Concentration (MBC), S. aureus [2]: 16 µM
fold less haemolytic on human erythrocytes than PepA1 (human erythrocytes): about 12 fold
fold less hemolytic compared to Pep10 (human erythrocytes): six-fold
hemolysis at 0.2 mg/mL (human erythrocytes): 10%
Human cells H50 (peptide concentration at which half of the human erythrocytes are lysed) (human erythrocytes): 840 µM
hemolysis at the MIC (human erythrocytes): no hemolysis

CC(C)C[C@H](NC(=O)[C@H](Cc1c[nH]c2ccccc12)NC(=O)[C@H](Cc1ccccc1)NC(=O)[C@@H](N)Cc1ccccc1)C(=O)N[C@@H](CCCNC(=N)N)C(=O)N[C@@H](CCCNC(=N)N)C(=O)NN(CC(=O)N[C@@H](CCCCN)C(N)=O)CC(O)CO (stereo partly shown) [Pep9, H-FFWLRRΨHytK-NH2] (H-FFWLRR[X1]K-NH2)
E. coli MIC [1, 7]: 100 µM
MIC, fold lower compared to Pep4, S. aureus [2]: two-fold
S. aureus MIC [2, 7]: 100 µM
lysis of human erythrocytes (in words) (human erythrocytes): did not trigger detectable lysis
Human cells H50 (peptide concentration at which half of the human erythrocytes are lysed) (human erythrocytes): nd (not detectable at the maximal concentration tested (1 mg/mL, 300 to 900 μM))

H-FFSWLSRRTK-NH2 [Pep3]
E. coli MIC [1, 7]: 95 µM
S. aureus MIC [2, 7]: 190 µM
Human cells H50 (peptide concentration at which half of the human erythrocytes are lysed) (human erythrocytes): nd (not detectable at the maximal concentration tested (1 mg/mL, 300 to 900 μM))

CC(C)N(CC(=O)N[C@@H](CCCCN)C(N)=O)NC(=O)[C@H](CCCNC(=N)N)NC(=O)[C@H](CCCNC(=N)N)NC(=O)CN(Cc1ccc2ccccc2c1)NC(=O)[C@H](Cc1ccccc1)NC(=O)CN(N)Cc1ccc2ccccc2c1 [Pep21, H-Ψ2Nal-F-Ψ2Nal-RR-ΨV-K-NH2]
Human cells H50 (human erythrocytes): nd (not detectable at the maximal concentration tested (500 μM))

C[C@@H](O)[C@@H]1NC(=O)[C@H](CCCNC(=N)N)NC(=O)[C@H](CCCNC(=N)N)NC(=O)[C@H](CO)NC(=O)[C@H](Cc2c[nH]c3ccccc23)NC(=O)[C@H](Cc2ccccc2)NC(=O)[C@H](Cc2ccccc2)NC(=O)[C@H](CCCCN)NC1=O [Pep7] (cyclo(FFWSRRTK))
E. coli MIC [1, 7]: 13 µM
S. aureus MIC [2, 7]: 30 µM
antibacterial activity, fold increase compared to Pep6 ([2]; species not specified): two-fold
Human cells H50 (peptide concentration at which half of the human erythrocytes are lysed) (human erythrocytes): 14 µM

N=C(N)NCCC[C@@H]1NC(=O)[C@H](Cc2c[nH]c3ccccc23)NC(=O)[C@H](Cc2ccccc2)NC(=O)CN(Cc2cccc3ccccc23)NC(=O)[C@H](CCCCN)NC(=O)CN(CC(O)CO)NC(=O)[C@H](CCCNC(=N)N)NC1=O (stereo partly shown) [Pep12, (Ψ1Nal-FWRR-ΨHyt-K)] (cyclo([azaβ3(1Nal)]FWRR[X1]K))
E. coli MIC [1, 6]: 16 µM
S. aureus MIC [2, 6]: 16 µM
Human cells % hemolysis at 500 μM (human erythrocytes): 98%
Human cells H50 (human erythrocytes): 220 µM

H-FFSYWLSRRTK-NH2 [Pep2]
E. coli MIC [1, 7]: 80 µM
S. aureus MIC [2, 7]: 170 µM
Human cells H50 (peptide concentration at which half of the human erythrocytes are lysed) (human erythrocytes): nd (not detectable at the maximal concentration tested (1 mg/mL, 300 to 900 μM))
